Reference: patent publication US12435061B2 (priority 2020, dated 2025)
Read-outs that look alike come from different tables or passages of the source.

Biological target: hTRPV3 (Homo sapiens (Human), UniProt Q8NET8)
Experiment: Whole-cell patch clamp, hTRPV3 Phase 1 / Phase 2 currents
Format: cell-based
Procedure, shortened: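 Currents are activated by 20 μM 2-APB or by perfusate at 28 °C or warmer, in Ringer's solution, and quantified at ±80 mV.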

[1] = Phase 1 current, inward, whole-cell patch clamp, read-out: hTRPV3 Patch P1 Inwd
[2] = Phase 1 current, read-out: hTRPV3 (nM) (Phase 1)
[3] = Phase 2 current, inward, whole-cell patch clamp, read-out: hTRPV3 Patch P2 Inwd
[4] = Phase 2 current, read-out: hTRPV3 (nM) (Phase 2)

Sequence of hTRPV3 (Q8NET8 whole entry): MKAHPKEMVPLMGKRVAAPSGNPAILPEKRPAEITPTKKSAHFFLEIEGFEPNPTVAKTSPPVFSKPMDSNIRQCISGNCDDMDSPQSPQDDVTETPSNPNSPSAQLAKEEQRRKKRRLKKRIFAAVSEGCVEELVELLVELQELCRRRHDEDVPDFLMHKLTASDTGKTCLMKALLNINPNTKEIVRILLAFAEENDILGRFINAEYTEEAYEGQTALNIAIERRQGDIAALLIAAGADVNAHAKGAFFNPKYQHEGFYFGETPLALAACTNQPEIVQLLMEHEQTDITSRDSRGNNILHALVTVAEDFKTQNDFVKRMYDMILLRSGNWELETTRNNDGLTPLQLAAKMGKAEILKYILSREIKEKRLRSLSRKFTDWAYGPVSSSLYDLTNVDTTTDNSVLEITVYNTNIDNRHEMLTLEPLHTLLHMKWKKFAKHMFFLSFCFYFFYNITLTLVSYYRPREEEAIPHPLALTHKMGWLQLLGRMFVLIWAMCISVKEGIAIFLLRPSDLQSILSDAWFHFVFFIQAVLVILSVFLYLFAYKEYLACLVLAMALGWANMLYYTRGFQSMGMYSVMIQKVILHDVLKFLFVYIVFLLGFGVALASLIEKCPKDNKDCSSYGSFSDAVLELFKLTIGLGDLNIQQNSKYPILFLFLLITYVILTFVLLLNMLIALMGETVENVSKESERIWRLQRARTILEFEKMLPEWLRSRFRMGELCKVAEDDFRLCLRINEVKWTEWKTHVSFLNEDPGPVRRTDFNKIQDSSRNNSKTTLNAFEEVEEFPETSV

Row | SMILES | IC50 [1] [nM] | IC50 [2] [nM] | other results
1 | Cc1ccccc1-c1ccc(N2CC[C@H](Oc3ccc(C(F)(F)F)cn3)C2)c(CCCO)c1 [Compound 1-176, (S)-3-(2′-methyl-4-(3-(5-(trifluoromethyl)pyridin-2-yloxy)pyrrolidin-1-yl)biphenyl-3-yl)propan-1-ol] | > 1000 | > 3200 | IC50 [3]: > 1000 nM; IC50 [4]: 2550 nM
2 | OCc1csc(-c2cccc(N3CC[C@H](Oc4ccc(C(F)(F)F)cn4)C3)c2)n1 [Compound 1-177] | > 1000 |  | 
3 | Cc1ccc(O[C@H]2CCN(c3ccc(-c4ccccc4C)nc3CO)C2)nc1 [Compound 1-189, (S)-(3-(3-(5-methylpyridin-2-yloxy)pyrrolidin-1-yl)-6-o-tolylpyridin-2-yl)methanol] | 100 to 1000 | 636 | IC50 [3]: > 1000 nM; IC50 [4]: 1120 nM
4 | Cc1ccc(O[C@H]2CCN(c3ccc(-c4ccccc4C#N)nc3CO)C2)nc1 [Compound 1-190, (S)-2-(6-(hydroxymethyl)-5-(3-(5-methylpyridin-2-yloxy)pyrrolidin-1-yl)pyridin-2-yl)benzonitrile] | > 1000 | > 3200 | IC50 [3]: > 1000 nM; IC50 [4]: > 3200 nM
5 | COc1ccccc1-c1ccc(N2CC[C@H](Oc3ccc(C)cn3)C2)c(CO)n1 [Compound 1-191, (S)-(6-(2-methoxyphenyl)-3-(3-(5-methylpyridin-2-yloxy)pyrrolidin-1-yl)pyridin-2-yl)methanol] | > 1000 | > 3200 | 
6 | Cc1cccnc1O[C@H]1CCN(c2ccc(-c3ccccc3C#N)nc2CO)C1 [Compound 1-192, (S)-2-(6-(hydroxymethyl)-5-(3-(3-methylpyridin-2-yloxy)pyrrolidin-1-yl)pyridin-2-yl)benzonitrile] | > 1000 | > 3200 | IC50 [3]: > 1000 nM; IC50 [4]: ~2750 nM
7 | Cc1cccnc1O[C@H]1CCN(c2ccc(-c3ccccc3)cc2CCO)C1 [Compound 1-193, (S)-2-(4-(3-(3-methylpyridin-2-yloxy)pyrrolidin-1-yl)biphenyl-3-yl)ethanol] | 100 to 1000 | 260 | 
8 | Cc1ccccc1-c1ccc(N2CC[C@H](Oc3ccc(Cl)cn3)C2)c(CO)n1 [Compound 1-195, (S)-(3-(3-(5-chloropyridin-2-yloxy)pyrrolidin-1-yl)-6-o-tolylpyridin-2-yl)methanol] | 100 to 1000 | 106 | IC50 [3]: 10 to 100 nM; IC50 [4]: 71.3 nM
9 | CCc1ccccc1-c1ccc(N2CC[C@H](Oc3ccc(C(F)(F)F)cn3)C2)c(CO)n1 [Compound 1-196, (S)-(6-(2-ethylphenyl)-3-(3-(5-(trifluoromethyl)pyridin-2-yloxy)pyrrolidin-1-yl)pyridin-2-yl)methanol] | > 1000 | > 3200 | 
10 | Cc1ccccc1-c1ccc(N2CC[C@H](Oc3ncccc3C)C2)c(CCO)c1 [Compound 1-198, (S)-2-(2′-methyl-4-(3-(3-methylpyridin-2-yloxy)pyrrolidin-1-yl)biphenyl-3-yl)ethanol] | 100 to 1000 | 184 | 
11 | OCc1nc(Oc2ccccc2)ccc1N1CC[C@H](Oc2ccc(C(F)(F)F)cn2)C1 [Compound 1-199, (S)-(6-phenoxy-3-(3-(5-(trifluoromethyl)pyridin-2-yloxy)pyrrolidin-1-yl)pyridin-2-yl)methanol] |  |  | IC50 (hTRPV3 Patch P1 Inwd (nM)): > 1000 nM; IC50 (hTRPV3 Patch P2 Inwd (nM)): > 1000 nM; IC50 (read-out: hTRPV3 (nM) (Phase 1)): > 3200 nM; IC50 (read-out: hTRPV3 (nM) (Phase 2)): > 3200 nM
12 | Cc1ccc(O[C@H]2CCN(c3ccc(-c4ccccc4C)nc3CCO)C2)nc1 [Compound 1-200, (S)-2-(3-(3-(5-methylpyridin-2-yloxy)pyrrolidin-1-yl)-6-o-tolylpyridin-2-yl)ethanol] | 100 to 1000 | 709 | 
13 | CCc1ccccc1-c1ccc(N2CC[C@H](Oc3ccc(Cl)cn3)C2)c(CO)n1 [Compound 1-201, (S)-(3-(3-(5-chloropyridin-2-yloxy)pyrrolidin-1-yl)-6-(2-ethylphenyl)pyridin-2-yl)methanol] | > 1000 | > 3200 | 
14 | COc1ccccc1-c1ccc(N2CC[C@H](Oc3ccc(Cl)cn3)C2)c(CO)n1 [Compound 1-202, (S)-(3-(3-(5-chloropyridin-2-yloxy)pyrrolidin-1-yl)-6-(2-methoxyphenyl)pyridin-2-yl)methanol] |  |  | hTRPV3 (nM) (Phase 1) (Phase 1 current): Incomplete Block (Phase 1)
15 | CCOC(=O)c1nc(-c2ccccc2)sc1N1CC[C@H](Oc2ccc(C(F)(F)F)cn2)C1 [Compound 1-206, (S)-ethyl 2-phenyl-5-(3-(5-(trifluoromethyl)pyridin-2-yloxy)pyrrolidin-1-yl)thiazole-4-carboxylate] | > 1000 | 2670 | 
16 | Cc1ccccc1-c1ccc(N2CC[C@H](Oc3ccc(F)cn3)C2)c(CO)n1 [Compound 1-207, (S)-(3-(3-(5-fluoropyridin-2-yloxy)pyrrolidin-1-yl)-6-o-tolylpyridin-2-yl)methanol] | 100 to 1000 | 283 | 
17 | CCc1ccccc1-c1ccc(N2CC[C@H](Oc3ccc(F)cn3)C2)c(CO)n1 [Compound 1-208] | > 1000 |  | IC50 [3]: 100 to 1000 nM
18 | N#Cc1ccccc1-c1ccc(N2CC[C@H](Oc3ccc(F)cn3)C2)c(CO)n1 [Compound 1-210, (S)-2-(5-(3-(5-fluoropyridin-2-yloxy)pyrrolidin-1-yl)-6-(hydroxymethyl)pyridin-2-yl)benzonitrile] | 100 to 1000 | 972 | 
19 | Cc1ccc(O[C@H]2CCN(c3ccc(Oc4ccccc4)nc3CO)C2)nc1 [Compound 1-211] | 100 to 1000 | 931 | IC50 [3]: 100 to 1000 nM; IC50 [4]: 936 nM
20 | COc1ccccc1-c1ccc(N2CC[C@H](Oc3ncccc3F)C2)c(CO)n1 [Compound 1-213, (S)-(3-(3-(3-fluoropyridin-2-yloxy)pyrrolidin-1-yl)-6-(2-methoxyphenyl)pyridin-2-yl)methanol] | > 1000 | 2790 | 
21 | CCc1ccccc1Oc1ccc(N2CC[C@H](Oc3ccc(C)cn3)C2)c(CO)n1 [Compound 1-214, (S)-(6-(2-ethylphenoxy)-3-(3-(5-methylpyridin-2-yloxy)pyrrolidin-1-yl)pyridin-2-yl)methanol] |  |  | hTRPV3 (nM) (Phase 1) (Phase 1 current): Incomplete Block (Phase 1)
22 | Cc1ccc(O[C@H]2CCN(c3ccc(-c4ccccc4)nc3CCO)C2)nc1 [Compound 1-215] | > 1000 | 1000 | 
23 | Cc1ccccc1-c1ccc(N2CC[C@H](Oc3ncccc3F)C2)c(CO)n1 [Compound 1-216, (S)-(3-(3-(3-fluoropyridin-2-yloxy)pyrrolidin-1-yl)-6-o-tolylpyridin-2-yl)methanol] | > 1000 | 1160 | 
24 | N#Cc1ccccc1-c1ccc(N2CC[C@H](Oc3ncccc3F)C2)c(CO)n1 [Compound 1-217, (S)-2-(5-(3-(3-fluoropyridin-2-yloxy)pyrrolidin-1-yl)-6-(hydroxymethyl)pyridin-2-yl)benzonitrile] | > 1000 | 3900 | 
25 | CCc1ccccc1-c1ccc(N2CC[C@H](Oc3ccc(C)cn3)C2)c(CCO)n1 [Compound 1-218, (S)-2-(6-(2-ethylphenyl)-3-(3-(5-methylpyridin-2-yloxy)pyrrolidin-1-yl)pyridin-2-yl)ethanol] | 100 to 1000 | 614 | 
26 | Cc1cccc(Oc2ccc(N3CC[C@H](Oc4ncccc4Cl)C3)c(CO)c2)c1 [Compound 1-242, (S)-(2-(3-(3-chloropyridin-2-yloxy)pyrrolidin-1-yl)-5-(m-tolyloxy)phenyl)methanol] | 10 to 100 | 37 | 
